≈ marks a conversion by molar mass, not a printed value.
Assays:
[1] = Human liver microsome (HLM) clearance assay; type: in vitro ADME; settings: human liver microsomes 0.5 mg/mL, NADPH 1 mM, 0.5 μM compound, 40 min
Description: Example 63: Human Liver Microsome (HLM) Clearance Assay
Samples were taken out before addition of NADPH, and at 5, 10, 20 and 40 minutes thereafter and protein precipitation using cold acetonitrile with added internal standard was performed prior to centrifugation and sample analysis using compound specific LCMS/MS methods. Control incubations in buffer and without NADPH were performed in the same manner. Compound depletion was determined and apparent clearance (CLapp) was calculated.

Solubility assay = type: physicochemical; settings: 0.067 M phosphate buffer pH 6.5, 24 hours shaking, from 10 mM DMSO stock; for solubility at 24 h: aqueous buffer, kinetic from dmso stock
Description: After centrifugation, the supernatant was analyzed by HPLC-UV. The solubility was defined as the concentration of the test substance in the selected solvent. It was determined by correlation with an external standard calibration curve.

| SMILES | HLM Clapp [1] | solubility at 24 h (Solubility assay) | Solubility at pH 6.5 (Solubility assay) |
| --- | --- | --- | --- |
| Cc1c(-c2ccc(NC(=O)[C@@H](NC(=O)c3ccnn3C(C)C)C(C3CC3)C3CC3)nc2F)ccc[n+]1[O-] [Example 16, N-[(1S)-1-(dicyclopropylmethyl)-2-[[6-fluoro-5-(2-methyl-1-oxido-pyridin-1-ium-3-yl)-2-pyridyl]amino]-2-oxo-ethyl]-2-isopropyl-pyrazole-3-carboxamide] | <8 mL/min/kg | 60 µg/mL (≈ 118 µM) |  |
| Cc1c(-c2ccc(NC(=O)[C@@H](NC(=O)c3ccnn3C(C)C)C(C3CC3)C3CC3)nc2F)cc(F)c[n+]1[O-] [Example 2, N-[(1S)-1-(dicyclopropylmethyl)-2-[[6-fluoro-5-(5-fluoro-2-methyl-1-oxido-pyridin-1-ium-3-yl)-2-pyridyl]amino]-2-oxo-ethyl]-2-isopropyl-pyrazole-3-carboxamide] | <8 mL/min/kg | 26 µg/mL (≈ 49.6 µM) |  |
| Cc1cc(-c2ccc(NC(=O)[C@@H](NC(=O)c3ccnn3C3CC3)C(C3CC3)C3CC3)nc2F)c(C)[n+]([O-])c1 [Example 27, 2-cyclopropyl-N-[(1S)-1-(dicyclopropylmethyl)-2-[[5-(2,5-dimethyl-1-oxido-pyridin-1-ium-3-yl)-6-fluoro-2-pyridyl]amino]-2-oxo-ethyl]pyrazole-3-carboxamide] | <8 mL/min/kg |  |  |
| CC(C)n1nccc1C(=O)N[C@H](C(=O)Nc1ccc(-c2ccc[n+]([O-])c2C2CC2)c(F)n1)C(C1CC1)C1CC1 [Example 7, N-[(1S)-2,2-dicyclopropyl-1-[[5-(2-cyclopropyl-1-oxido-pyridin-1-ium-3-yl)-6-fluoro-2-pyridyl]carbamoyl]ethyl]-2-isopropyl-pyrazole-3-carboxamide] | <8 mL/min/kg | 38 µg/mL (≈ 71.3 µM) |  |
| Cc1c(-c2ccc(NC(=O)[C@@H](NC(=O)c3ccnn3C(C)C)C(C3CC3)C3CC3)nc2Cl)cc(F)c[n+]1[O-] [Example 19, N-[(1S)-1-[[6-chloro-5-(5-fluoro-2-methyl-1-oxido-pyridin-1-ium-3-yl)-2-pyridyl]carbamoyl]-2,2-dicyclopropyl-ethyl]-2-isopropyl-pyrazole-3-carboxamide] | <8 mL/min/kg | 18 µg/mL (≈ 33.3 µM) |  |
| CCOc1cc(-c2ccc(NC(=O)[C@@H](NC(=O)c3ccnn3C(C)C)C(C3CC3)C3CC3)nc2F)c(C)[n+]([O-])c1 [Example 10, N-[(1S)-1-(dicyclopropylmethyl)-2-[[5-(5-ethoxy-2-methyl-1-oxido-pyridin-1-ium-3-yl)-6-fluoro-2-pyridyl]amino]-2-oxo-ethyl]-2-isopropyl-pyrazole-3-carboxamide] | 22 mL/min/kg | 9 µg/mL (≈ 16.3 µM) |  |
| CC(C)n1nccc1C(=O)N[C@H](C(=O)Nc1ccc(-c2c[n+]([O-])cc(F)c2C(F)(F)F)c(F)n1)C(C1CC1)C1CC1 [Example 50, N-[(1S)-1-(dicyclopropylmethyl)-2-[[6-fluoro-5-[5-fluoro-1-oxido-4-(trifluoromethyl)pyridin-1-ium-3-yl]-2-pyridyl]amino]-2-oxo-ethyl]-2-isopropyl-pyrazole-3-carboxamide] | 10 mL/min/kg | < 1 µg/mL |  |
| Cc1c(-c2ccc(NC(=O)[C@@H](NC(=O)c3ccnn3C(C)C)C(C3CC3)C3CC3)nc2F)cc(OCF)c[n+]1[O-] [Example 9, N-[(1S)-1-(dicyclopropylmethyl)-2-[[6-fluoro-5-[5-(fluoromethoxy)-2-methyl-1-oxido-pyridin-1-ium-3-yl]-2-pyridyl]amino]-2-oxo-ethyl]-2-isopropyl-pyrazole-3-carboxamide] | <8 mL/min/kg | 23 µg/mL (≈ 41.5 µM) |  |
| Cc1cc(-c2ccc(NC(=O)[C@@H](NC(=O)c3conc3C(C)C)C(C3CC3)C3CC3)nc2F)c(C)[n+]([O-])c1 [Example 22, N-[(1S)-1-(dicyclopropylmethyl)-2-[[5-(2,5-dimethyl-1-oxido-pyridin-1-ium-3-yl)-6-fluoro-2-pyridyl]amino]-2-oxo-ethyl]-3-isopropyl-isoxazole-4-carboxamide] | 73 mL/min/kg | 28 µg/mL (≈ 53.7 µM) |  |
| Cc1cc(-c2ccc(NC(=O)[C@@H](NC(=O)c3ccnn3C3CCC3)C(C3CC3)C3CC3)nc2F)c(C)[n+]([O-])c1 [Example 25, 2-cyclobutyl-N-[(1S)-1-(dicyclopropylmethyl)-2-[[5-(2,5-dimethyl-1-oxido-pyridin-1-ium-3-yl)-6-fluoro-2-pyridyl]amino]-2-oxo-ethyl]pyrazole-3-carboxamide] | 250 mL/min/kg |  |  |
| Cc1c(-c2ccc(NC(=O)[C@@H](NC(=O)c3ccnn3C(C)C)C(C3CC3)C3CC3)nc2F)c(C(F)(F)F)cc[n+]1[O-] (single isomer, unassigned) [Example 54] | 63 mL/min/kg | < 1 µg/mL |  |
| Cc1cc(-c2ccc(NC(=O)[C@@H](NC(=O)c3ccnn3C(C)C)C(C3CC3)C3CC3)nc2Cl)c(C)[n+]([O-])c1 [Example 18, N-[(1S)-1-[[6-chloro-5-(2,5-dimethyl-1-oxido-pyridin-1-ium-3-yl)-2-pyridyl]carbamoyl]-2,2-dicyclopropyl-ethyl]-2-isopropyl-pyrazole-3-carboxamide] | <8 mL/min/kg | 26 µg/mL (≈ 48.4 µM) |  |
| Cc1c(-c2ccc(NC(=O)[C@@H](NC(=O)c3ccnn3C(C)C)C(C3CC3)C3CC3)nc2F)c(C(F)(F)F)cc[n+]1[O-] (single isomer, unassigned) [Example 55] | 41 mL/min/kg |  | <1 μg/mL |
| Cc1c(-c2ccc(NC(=O)[C@@H](NC(=O)c3ccnn3C(C)C)C(C3CC3)C3CC3)nc2F)c[n+]([O-])cc1C(F)F [Example 48, N-[(1S)-1-(dicyclopropylmethyl)-2-[[5-[5-(difluoromethyl)-4-methyl-1-oxido-pyridin-1-ium-3-yl]-6-fluoro-2-pyridyl]amino]-2-oxo-ethyl]-2-isopropyl-pyrazole-3-carboxamide] | <8 mL/min/kg | 19 µg/mL (≈ 34.1 µM) |  |
| Cc1c[n+]([O-])cc(-c2ccc(NC(=O)[C@@H](NC(=O)c3ccnn3C(C)C)C(C3CC3)C3CC3)nc2F)c1C [Example 52, N-[(1S)-1-(dicyclopropylmethyl)-2-[[5-(4,5-dimethyl-1-oxido-pyridin-1-ium-3-yl)-6-fluoro-2-pyridyl]amino]-2-oxo-ethyl]-2-isopropyl-pyrazole-3-carboxamide] | <8 mL/min/kg | 4 µg/mL (≈ 7.68 µM) |  |
| Cc1cc(-c2ccc(NC(=O)[C@@H](NC(=O)c3ccnn3C(C)C)C(C3CC3)C3CC3)nc2F)c(C2CC2)[n+]([O-])c1 [Example 13, N-[(1S)-2,2-dicyclopropyl-1-[[5-(2-cyclopropyl-5-methyl-1-oxido-pyridin-1-ium-3-yl)-6-fluoro-2-pyridyl]carbamoyl]ethyl]-2-isopropyl-pyrazole-3-carboxamide] | 14 mL/min/kg | 26 µg/mL (≈ 47.6 µM) |  |
| Cc1cc(-c2ccc(NC(=O)[C@@H](NC(=O)c3ccnn3CC(C)C)C(C3CC3)C3CC3)nc2F)c(C)[n+]([O-])c1 [Example 28, N-[(1S)-1-(dicyclopropylmethyl)-2-[[5-(2,5-dimethyl-1-oxido-pyridin-1-ium-3-yl)-6-fluoro-2-pyridyl]amino]-2-oxo-ethyl]-2-isobutyl-pyrazole-3-carboxamide] | >750 mL/min/kg |  |  |
| Cc1cc(-c2ccc(NC(=O)[C@@H](NC(=O)c3ccnn3CC3CC3)C(C3CC3)C3CC3)nc2F)c(C)[n+]([O-])c1 [Example 29, 2-(cyclopropylmethyl)-N-[(1S)-1-(dicyclopropylmethyl)-2-[[5-(2,5-dimethyl-1-oxido-pyridin-1-ium-3-yl)-6-fluoro-2-pyridyl]amino]-2-oxo-ethyl]pyrazole-3-carboxamide] | 8 mL/min/kg |  |  |
| Cc1cc(-c2ccc(NC(=O)[C@@H](NC(=O)c3cnnn3C(C)C)C(C3CC3)C3CC3)nc2F)c(C)[n+]([O-])c1 [Example 23, N-[(1S)-1-(dicyclopropylmethyl)-2-[[5-(2,5-dimethyl-1-oxido-pyridin-1-ium-3-yl)-6-fluoro-2-pyridyl]amino]-2-oxo-ethyl]-3-isopropyl-triazole-4-carboxamide] | <8 mL/min/kg |  |  |
| Cc1cc(-c2ccc(NC(=O)[C@@H](NC(=O)c3ccnn3C(F)F)C(C3CC3)C3CC3)nc2F)c(C)[n+]([O-])c1 [Example 26, N-[(1S)-1-(dicyclopropylmethyl)-2-[[5-(2,5-dimethyl-1-oxido-pyridin-1-ium-3-yl)-6-fluoro-2-pyridyl]amino]-2-oxo-ethyl]-2-(difluoromethyl)pyrazole-3-carboxamide] | <8 mL/min/kg |  |  |
| Cc1cc(-c2ccc(NC(=O)[C@@H](NC(=O)c3ccnn3CC(F)F)C(C3CC3)C3CC3)nc2F)c(C)[n+]([O-])c1 [Example 24, N-[(1S)-1-(dicyclopropylmethyl)-2-[[5-(2,5-dimethyl-1-oxido-pyridin-1-ium-3-yl)-6-fluoro-2-pyridyl]amino]-2-oxo-ethyl]-2-(2,2-difluoroethyl)pyrazole-3-carboxamide] | <8 mL/min/kg |  |  |
| CC(C)n1nccc1C(=O)N[C@H](C(=O)Nc1ccc(-c2c[n+]([O-])ccc2C2CC2)c(F)n1)C(C1CC1)C1CC1 [Example 47, N-[(1S)-2,2-dicyclopropyl-1-[[5-(4-cyclopropyl-1-oxido-pyridin-1-ium-3-yl)-6-fluoro-2-pyridyl]carbamoyl]ethyl]-2-isopropyl-pyrazole-3-carboxamide] | <8 mL/min/kg |  |  |
| Cc1cc(-c2ccc(NC(=O)[C@@H](NC(=O)c3ccnn3CC3CC(F)(F)C3)C(C3CC3)C3CC3)nc2F)c(C)[n+]([O-])c1 [Example 32, N-[(1S)-1-(dicyclopropylmethyl)-2-[[5-(2,5-dimethyl-1-oxido-pyridin-1-ium-3-yl)-6-fluoro-2-pyridyl]amino]-2-oxo-ethyl]-2-[(3,3-difluorocyclobutyl)methyl]pyrazole-3-carboxamide] | 23 mL/min/kg |  |  |

From patent US12065429B2, “Small molecule modulators of IL-17” (LEO Pharma A/S, priority 2022, dated 2024)
